What all share (assay): level (log10 ratio to DMSO vehicle control); higher = higher biomarker level / cell amount than vehicle control
Compound in assay [1]: OCCC(F)(F)C(F)(F)C(F)(F)C(F)(F)C(F)(F)C(F)(F)F [6:2 Fluorotelomer alcohol]
Particulars: in DMSO. On the procedure: (§1)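 BioMAP Diversity Plus panel of 12 human primary cell co-culture systems (3C, 4H, LPS, SAg, BT, BF4T, BE3C, CASM3C, HDF3CGF, KF3CT, MyoF, Mphg). Compounds were added 1 h before stimulation and left for 24 h (MyoF 48 h; BT 72 h for soluble read-outs or 6 d for IgG). Biomarkers were read by ELISA, cytotoxicity by SRB, PBMC viability and proliferation by Alamar Blue. Each well value was divided by the mean of 8 DMSO control wells on the same plate and log10 transformed; duplicate blinded samples were tested at 4 concentrations.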

Compound in assay [2]: COC(=O)CCC(F)(F)C(F)(F)C(F)(F)C(F)(F)F [Methyl 2H,2H,3H,3H-perfluoroheptanoate]
As to conditions: in DMSO. On the procedure:
as §1

Compound in assay [3]: NCC(F)(F)C(F)(F)C(F)(F)C(F)(F)C(F)(F)C(F)(F)C(F)(F)F [1H,1H-Perfluorooctylamine]
As to conditions: in DMSO. On the procedure:
as §1

Compound in assay [4]: FC(F)C(F)(F)COCC1CO1 [((2,2,3,3-Tetrafluoropropoxy)methyl)oxirane]
As to conditions: in DMSO. On the procedure:
as §1

Compound in assay [5]: O=C(O)C(F)(F)C(F)(F)C(F)(F)C(F)(F)C(F)(F)C(F)(F)C(F)(F)C(F)(F)C(F)(F)F [Perfluorodecanoic acid]
As to conditions: in DMSO. On the procedure:
as §1

Compound in assay [6]: O=C(O)C(F)(F)C(F)(F)C(F)(F)F [Perfluorobutanoic acid]
As to conditions: in DMSO. On the procedure: as §1

Compound in assay [7]: OCCCC(F)(F)C(F)(F)C(F)(F)C(F)(F)C(F)(F)C(F)(F)C(F)(F)F [7:3 Fluorotelomer alcohol]
Particulars: 6700 nM; in DMSO. On the procedure:
as §1

± gives the standard deviation of the averaged measurements.

HDF3CGF:Proliferation 72hr: the “level (log10)” value in assay [1] (6700 nM) is -0.007 ± 0.05; in assay [1] (20000 nM), 0.0005 ± 0.086; in assay [2] (6700 nM), 0.011 ± 0.0057; in assay [2] (20000 nM), 0.013 ± 0.0057; in assay [2] (60000 nM), 0.0705 ± 0.044; in assay [3] (6700 nM) it was -0.041 ± 0.045. Besides, the “level (log10)” value was 0.004 ± 0.035 in assay [3] (20000 nM); -0.016 ± 0.041 in assay [3] (60000 nM); -0.054 ± 0.0057 in assay [4] (6700 nM); -0.023 ± 0.0042 in assay [4] (20000 nM); -0.099 ± 0.0014 in assay [4] (60000 nM); 0.115 ± 0.025 in assay [5] (6700 nM). Further, the “level (log10)” value in assay [5] (20000 nM) was -0.934 ± 0.037; in assay [6] (6700 nM) it was 0.01 ± 0.054; in assay [6] (20000 nM), 0.0145 ± 0.0021; in assay [6] (60000 nM), 0.0285 ± 0.029; in assay [7], -0.49 ± 0.0042.

Consider HDF3CGF:MMP-1, for which the “level (log10)” value was -0.0025 ± 0.00071 in assay [1] (6700 nM); 0.0015 ± 0.00071 in assay [1] (20000 nM); 0 ± 0.011 in assay [2] (6700 nM); -0.003 ± 0.018 in assay [2] (20000 nM); -0.004 ± 0.025 in assay [2] (60000 nM); -0.012 ± 0.0014 in assay [3] (6700 nM). Also, the “level (log10)” value is 0.0015 ± 0.0035 in assay [3] (20000 nM); 0.013 ± 0.0014 in assay [3] (60000 nM); 0.0085 ± 0.012 in assay [4] (6700 nM); 0.0175 ± 0.0064 in assay [4] (20000 nM); 0.0125 ± 0.023 in assay [4] (60000 nM); -0.041 ± 0.0028 in assay [5] (6700 nM). The “level (log10)” value in assay [5] (20000 nM) is -0.174 ± 0.08; in assay [6] (6700 nM), 0.0135 ± 0.0064; in assay [6] (20000 nM), 0.0095 ± 0.0035; in assay [6] (60000 nM) it was 0.021 ± 0.027; in assay [7], -0.034 ± 0.021.

Turning to MyoF:PAI-I, the “level (log10)” value in assay [1] (6700 nM) was 0.002 ± 0.0028; in assay [1] (20000 nM), 0.007 ± 0.0042; in assay [2] (6700 nM), -0.003; in assay [2] (20000 nM), 0.0055 ± 0.0078; in assay [2] (60000 nM) it was 0.003 ± 0.014; in assay [3] (6700 nM), 0 ± 0.016. The “level (log10)” value in assay [3] (20000 nM) was -0.002 ± 0.014; in assay [3] (60000 nM) it was -0.005 ± 0.013; in assay [4] (6700 nM), -0.008 ± 0.0028; in assay [4] (20000 nM) it was -0.002 ± 0.0085; in assay [4] (60000 nM), -0.0115 ± 0.0064; in assay [5] (6700 nM), 0.0035 ± 0.012. Moreover, the “level (log10)” value in assay [5] (20000 nM) is 0.0205 ± 0.025; in assay [6] (6700 nM) it was -0.008 ± 0.0014; in assay [6] (20000 nM) it was -0.0055 ± 0.018; in assay [6] (60000 nM), -0.0105 ± 0.013; in assay [7] it was 0.0015 ± 0.0035.

As for 3C:CCL2/MCP-1, the “level (log10)” value in assay [1] (6700 nM) was 0.008 ± 0.014; in assay [1] (20000 nM) it was -0.008 ± 0.0071; in assay [2] (6700 nM) it was 0.011 ± 0.0085; in assay [2] (20000 nM) it was 0.007 ± 0.013; in assay [2] (60000 nM) it was 0.0285 ± 0.028; in assay [3] (6700 nM), -0.003 ± 0.0099. Further, the “level (log10)” value in assay [3] (20000 nM) is 0.0095 ± 0.021; in assay [3] (60000 nM), 0.0275 ± 0.028; in assay [4] (6700 nM) it was 0.0045 ± 0.025; in assay [4] (20000 nM) it was 0.016 ± 0.028; in assay [4] (60000 nM), 0.0215 ± 0.042; in assay [5] (6700 nM), 0.0065 ± 0.013. The “level (log10)” value was -0.004 ± 0.0028 in assay [5] (20000 nM); 0.007 ± 0.0071 in assay [6] (6700 nM); 0.0075 ± 0.011 in assay [6] (20000 nM); 0.028 ± 0.025 in assay [6] (60000 nM); 0.0045 ± 0.011 in assay [7].

With BE3C:PAI-I, the “level (log10)” value is -0.0205 ± 0.03 in assay [1] (6700 nM); -0.025 ± 0.048 in assay [1] (20000 nM); -0.0065 ± 0.025 in assay [2] (6700 nM); -0.006 ± 0.044 in assay [2] (20000 nM); -0.0055 ± 0.005 in assay [2] (60000 nM); -0.0075 ± 0.028 in assay [3] (6700 nM). Further, the “level (log10)” value in assay [3] (20000 nM) is -0.008 ± 0.014; in assay [3] (60000 nM), -0.002 ± 0.04; in assay [4] (6700 nM), -0.0145 ± 0.028; in assay [4] (20000 nM) it was -0.015 ± 0.034; in assay [4] (60000 nM), -0.011 ± 0.018; in assay [5] (6700 nM), -0.0475 ± 0.013. The “level (log10)” value in assay [5] (20000 nM) was -0.4 ± 0.047; in assay [6] (6700 nM), -0.011 ± 0.011; in assay [6] (20000 nM), -0.025 ± 0.023; in assay [6] (60000 nM), -0.0085 ± 0.0035; in assay [7], -0.0545 ± 0.049.

With CASM3C:IL-6, the “level (log10)” value in assay [1] (6700 nM) was 0.0015 ± 0.018; in assay [1] (20000 nM), -0.004 ± 0.0099; in assay [2] (6700 nM) it was -0.019 ± 0.021; in assay [2] (20000 nM) it was -0.025 ± 0.0028; in assay [2] (60000 nM), 0.0005 ± 0.028; in assay [3] (6700 nM), -0.0245 ± 0.037. Moreover, the “level (log10)” value in assay [3] (20000 nM) is 0.0005 ± 0.057; in assay [3] (60000 nM), 0.035 ± 0.081; in assay [4] (6700 nM) it was -0.029 ± 0.0071; in assay [4] (20000 nM) it was -0.017 ± 0.0028; in assay [4] (60000 nM) it was 0.0175 ± 0.043; in assay [5] (6700 nM), -0.035 ± 0.037. Further, the “level (log10)” value was -0.0375 ± 0.039 in assay [5] (20000 nM); -0.0295 ± 0.012 in assay [6] (6700 nM); -0.0175 ± 0.021 in assay [6] (20000 nM); 0.0115 ± 0.044 in assay [6] (60000 nM); 0.0015 ± 0.012 in assay [7].

KF3CT:PAI-I: the “level (log10)” value in assay [1] (6700 nM) is -0.0155 ± 0.0035; in assay [1] (20000 nM), -0.0035 ± 0.011; in assay [2] (6700 nM), -0.01 ± 0.013; in assay [2] (20000 nM), -0.009 ± 0.0042; in assay [2] (60000 nM), -0.0105 ± 0.0092; in assay [3] (6700 nM), -0.0025 ± 0.005. Moreover, the “level (log10)” value was -0.001 ± 0.0014 in assay [3] (20000 nM); 0.003 ± 0.014 in assay [3] (60000 nM); 0.004 in assay [4] (6700 nM); -0.0085 ± 0.005 in assay [4] (20000 nM); -0.0015 ± 0.012 in assay [4] (60000 nM); -0.0365 ± 0.023 in assay [5] (6700 nM). Further, the “level (log10)” value in assay [5] (20000 nM) is -0.144 ± 0.042; in assay [6] (6700 nM), -0.0055 ± 0.0078; in assay [6] (20000 nM), -0.019 ± 0.0014; in assay [6] (60000 nM), 0; in assay [7], -0.017 ± 0.025.

In the case of lMphg:IL-1alpha, the “level (log10)” value in assay [1] (6700 nM) is 0.0025 ± 0.022; in assay [1] (20000 nM) it was 0.019 ± 0.0085; in assay [2] (6700 nM), -0.0215 ± 0.056; in assay [2] (20000 nM) it was -0.0265 ± 0.035; in assay [2] (60000 nM), 0.029 ± 0.082; in assay [3] (6700 nM), -0.005 ± 0.016. For the same test system, the “level (log10)” value was -0.0045 ± 0.013 in assay [3] (20000 nM); 0.0045 ± 0.0092 in assay [3] (60000 nM); -0.004 ± 0.017 in assay [4] (6700 nM); -0.039 ± 0.035 in assay [4] (20000 nM); -0.0235 ± 0.033 in assay [4] (60000 nM); 0.0085 ± 0.0078 in assay [5] (6700 nM). For the same test system, the “level (log10)” value in assay [5] (20000 nM) is 0.013 ± 0.02; in assay [6] (6700 nM), 0.002 ± 0.041; in assay [6] (20000 nM) it was 0.022 ± 0.079; in assay [6] (60000 nM) it was 0.0365 ± 0.076; in assay [7] it was 0.017 ± 0.028.

The values above are taken from the supplement of paper PMC10331698.
